Experiments:
[1] = test system: cellular cholesterol in ScN2a cells; assay type: cell-based, mouse
[2] = test system: RML scrapie prion infection; assay type: in vivo, mouse (transgene TG 20); details: TG 20 mice

SMILES | cholesterol distribution (filipin staining) [1] | time to death of prion disease ([2]; intracerebral RML scrapie, 2 mg per mouse by gavage three times weekly for eight weeks, untreated control 92±4 days) | lengthening of the survival time ([2]; versus untreated control, Student's t test p<0.0001)
CCN(CC)CCCC(C)Nc1c2ccc(Cl)cc2nc2ccc(OC)cc12 (stereo not shown) [Quinacrin, reference compound] | redistribution was revealed to intracellular compartments |  | 
COc1ccc2nc3cc(Cl)ccc3c(NCCCCN3CCN(CCCN4c5ccccc5CCc5ccccc54)CC3)c2c1 [compound (10), (6-chlor-2-methoxy-acridine-9-yl)-(4-{4-[3-(10,11-dihydro-dibenzo[b,f]azepine-5-yl)-propyl]-piperazine-1-yl}-butyl)-amine] | redistribution was revealed to intracellular compartments | 100 ± 5 days | 10%

Source: patent publication US7951796B2 (priority 2005, dated 2011)
